Reference: EPA's ToxValDB 9.5 (doi:10.2903/j.efsa.2005.29r)
Where “and” joins values, the source holds several entries; their conditions need not be identical. Identical values can stand only once.

Tests used:
[1] = test system: Apis mellifera; details: acute, mortality
[2] = test system: Tagia sp.
[3] = test system: Oncorhynchus mykiss; details: for NOEC: chronic/long-term
[4] = test system: Coturnix coturnix; details: oral
[5] = test system: Canidae; details: subchronic; duration: 90 days; oral; Dog Other; clinical signs
[6] = test system: Oryctolagus sp.; details: developmental; development
[7] = test system: Rattus norvegicus
[8] = test system: Aphidius rhopalosiphi; details: not reported; mortality
[9] = test system: Daphnia magna; details: chronic/long-term
[10] = test system: Typhlodromus pyri; assay: LR50; higher = less toxic; details: chronic/long-term; duration: 7 days; mortality

## Cc1ccc(N(SC(F)(Cl)Cl)S(=O)(=O)N(C)C)cc1 [Tolylfluanid]
[1]; duration: 48 hours, dermal
  LD50: > 196 µg/piece
[1]; oral, unspecified
  LD50: > 197 µg/piece
[2]; acute, duration: 14 days, mortality
  LC50: > 1000 mg/kg
[2]; chronic/long-term, reproduction
  NOEC: 24000 g/ha
[3]; acute, duration: 96 hours, mortality
  LC50: 0.045 µg/mL and 0.016 µg/mL
[3]; duration: 28 days
  NOEC: 44 µg/L
[3]; duration: 35 days
  NOEC: 60 µg/L
[4]; acute, duration: 5 days, diet, mortality
  LC50: > 5000 mg/kg
[4]; acute, mortality
  LD50: > 2000 mg/kg
[4]; reproduction developmental, duration: 21 weeks, diet
  NOEC: 791 mg/kg-day
[5]
  NOAEL: 33 mg/kg-day
[6]
  NOAEL: 25 mg/kg-day
[7]; acute, oral, mortality
  LD50: > 5000 mg/kg
[7]; reproduction developmental, M, body weight
  NOAEL: 12 mg/kg-day
[7]; short-term, duration: 28 days, oral, diet
  NOEC: 1500 mg/kg-day
[8]
  LEL: 2500 g/ha
[9]; duration: 40 days
  NOAEC: 180 µg/L
[9]; duration: 51 days
  NOAEC: 99 µg/L
[10]
  LR50: 247 g/ha
